Results taken from ChEMBL document CHEMBL3243959, “In vitro metabolism of a new 4-hydroxycoumarin anticoagulant. Structure of an unusual metabolite” (J Med Chem, 1977).
Activity calls are given as the source filed them. The rule behind the calls is not given here.

Experiments:
[1] = test system: Liver microsome; test: Drug level in Wistar albino rat liver microsomes treated with clocoumarol at 5 umol after 30 mins by TLC analysis in presence of NADP/NAD/NADH/oxygen; format: ADME; details: 0.5 h
[2] = Drug level in CBRI mouse liver microsomes treated with clocoumarol at 5 umol after 30 mins by TLC analysis in presence of NADPH generating system; format: ADME; details: 0.5 h
[3] = test system: Liver microsome; test: Drug level in Wistar albino rat liver microsomes treated with clocoumarol at 5 umol after 30 mins TLC analysis in presence of NADPH generating system; format: ADME; details: 0.5 h
[4] = Retardation factor of the compound in 9:1 v/v benzene-ethyl acetate solvent system by TLC analysis; format: physicochemical
[5] = Retardation factor of the compound in 9:1 v/v dichloroethane-acetone solvent system by TLC analysis; format: physicochemical
[6] = test system: Rattus norvegicus; test: Anticoagulant activity in rat at 100 x 0.25 mg/kg, ip; format: functional, organism-based; design: dose 0.25 mg/kg
[7] = Retardation factor of the compound in 20:3 v/v benzene-acetic acid solvent system by TLC analysis; format: physicochemical
[8] = Drug level in Duncan-Hartley guinea pig liver microsomes treated with clocoumarol at 5 umol after 30 mins by TLC analysis in presence of NADPH generating system; format: ADME, Cavia porcellus; details: 0.5 h
[9] = test system: Liver microsome; test: Drug level in Wistar albino rat washed liver microsomal fraction treated with clocoumarol at 5 umol after 30 mins by TLC analysis; format: ADME; details: microsomes, 0.5 h
[10] = test system: Liver microsome; test: Drug metabolism Wistar albino rat liver microsomes assessed as formation of 6-[1-Hydroxy-2-oxo-3-[p-(2-chloroethyl)phenyl]hexylidene]-2,4-cyclohexadien-1-one at 5 umol after 30 mins by TLC analysis in presence of carbon monooxide; format: ADME; details: 0.5 h
[11] = test system: Liver microsome; test: Drug metabolism in Wistar albino rat liver microsomes assessed as formation of 6-[1-Hydroxy-2-oxo-3-[p-(2-chloroethyl)phenyl]hexylidene]-2,4-cyclohexadien-1-one at 5 umol after 30 mins by TLC analysis in presence of NADP/NAD/NADH/oxygen; format: ADME; details: 0.5 h
[12] = test system: Liver microsome; test: Drug metabolism in Wistar albino rat liver microsomes assessed as formation of 6-[1-Hydroxy-2-oxo-3-[p-(2-chloroethyl)phenyl]hexylidene]-2,4-cyclohexadien-1-one at 5 umol after 30 mins by TLC analysis in presence of nitrogen; format: ADME; details: 0.5 h
[13] = Drug metabolism in Duncan-Hartley guinea pig liver microsomes assessed as formation of 6-[1-Hydroxy-2-oxo-3-[p-(2-chloroethyl)phenyl]hexylidene]-2,4-cyclohexadien-1-one at 5 umol after 30 mins by TLC analysis in presence of NADPH generating system; format: ADME, Cavia porcellus; details: 0.5 h
[14] = Drug metabolism in CBRI mouse liver microsomes assessed as formation of 6-[1-Hydroxy-2-oxo-3-[p-(2-chloroethyl)phenyl]hexylidene]-2,4-cyclohexadien-1-one at 5 umol after 30 mins by TLC analysis in presence of NADPH generating system; format: ADME; details: 0.5 h
[15] = Drug metabolism in Wistar albino rat liver nuclear fraction assessed as formation of 6-[1-Hydroxy-2-oxo-3-[p-(2-chloroethyl)phenyl]hexylidene]-2,4-cyclohexadien-1-one at 5 umol after 30 mins by TLC analysis; format: ADME; details: 0.5 h
[16] = test system: Liver microsome; test: Drug metabolism in Wistar albino rat washed liver microsomal fraction assessed as formation of 6-[1-Hydroxy-2-oxo-3-[p-(2-chloroethyl)phenyl]hexylidene]-2,4-cyclohexadien-1-one at 5 umol after 30 mins by TLC analysis; format: ADME; details: microsomes, 0.5 h
[17] = Drug metabolism in Wistar albino rat mitochondrial fraction assessed as formation of 6-[1-Hydroxy-2-oxo-3-[p-(2-chloroethyl)phenyl]hexylidene]-2,4-cyclohexadien-1-one at 5 umol after 30 mins by TLC analysis; format: ADME, Mitochondria; details: 0.5 h
[18] = test system: Liver microsome; test: Drug metabolism in Wistar albino rat liver soluble microsomal fraction assessed as formation of 6-[1-Hydroxy-2-oxo-3-[p-(2-chloroethyl)phenyl]hexylidene]-2,4-cyclohexadien-1-one; format: ADME; details: microsomes

Row | SMILES | Drug metabolism [1] | Drug metabolism [2] | Drug metabolism [3] | Rf [4] | Rf [5] | Activity [6] | Rf [7] | Drug metabolism [8] | Drug metabolism [9] | Drug metabolism [10] | Drug metabolism [11] | Drug metabolism [12] | Drug metabolism [13] | Drug metabolism [14] | Drug metabolism [15] | Drug metabolism [16] | Drug metabolism [17] | Drug metabolism [18]
1 | CCCC(C(=O)/C(O)=C1\C=CC=CC1=O)c1ccc(CCCl)cc1 (stereo unspecified) | metabolite_detected | metabolite_detected | metabolite_detected | 0.44 | 0.61 | inactive | 0.74 | metabolite_detected | metabolite_detected | metabolite_notdetected |  |  |  |  |  |  |  | 
2 | CCCC(c1ccc(CCCl)cc1)c1c(O)c2ccccc2oc1=O (stereo unspecified) [CLOCOUMAROL] |  |  |  | 0.33 | 0.53 |  | 0.67 |  |  |  | metabolite_detected | metabolite_notdetected | metabolite_detected | metabolite_detected | metabolite_notdetected | metabolite_detected | metabolite_notdetected | metabolite_notdetected
